Experimental data published in US20260317320A1, “C5AR1 ANTAGONISTS AND USES THEREOF” (Vanqua Bio, Inc., priority 2022, published 2026).
Read-outs that look alike come from different tables or passages of the source.

What was measured:
[1] = molecular target: T1, complement C5a receptor 1 (C5aR1) (Homo sapiens, UniProt P21730); assay: β-arrestin recruitment via C5aR1 activation in live CHO-K1 cells (PathHunter), antagonist mode; assay type: cell-based; settings: antagonist mode; recombinant hC5a (EC90) as competing natural agonist; live CHO-K1 cells; read-out: [Antagonist] B-arrestin2 recruitment: Average IC50
T1 construct: β-galactosidase fragment (PathHunter enzyme complementation); host or cells: CHO-K1 (PathHunter CHO-K1 C5aR1 β-arrestin cell line)
T1 sequence (P21730 1-350): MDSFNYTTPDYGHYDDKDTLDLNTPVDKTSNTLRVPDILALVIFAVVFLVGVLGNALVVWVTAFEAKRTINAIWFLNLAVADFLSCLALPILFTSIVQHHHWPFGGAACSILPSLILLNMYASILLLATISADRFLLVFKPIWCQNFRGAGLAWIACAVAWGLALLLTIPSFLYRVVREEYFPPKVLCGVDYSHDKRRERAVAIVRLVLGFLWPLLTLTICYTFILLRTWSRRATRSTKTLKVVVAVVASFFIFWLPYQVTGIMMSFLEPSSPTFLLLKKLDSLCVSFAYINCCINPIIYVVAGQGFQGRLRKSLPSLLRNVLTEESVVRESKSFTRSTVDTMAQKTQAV
How it was run: (§1)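 β-arrestin recruitment to C5aR1 in CHO-K1 cells is detected by enzyme-fragment complementation. Antagonism is measured against recombinant hC5a at its EC90; agonism is measured with compound alone. Potencies are grouped into IC50 categories.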

[2] = molecular target: T1, complement C5a receptor 1 (C5aR1); assay: β-arrestin recruitment via C5aR1 activation in live CHO-K1 cells (PathHunter), agonist mode; assay type: cell-based
How it was run: as §1

SMILES	IC50 [1] [nM]	[Agonist] B-arrestin2 recruitment: Average EC50 (nM) ([2]; at 10 μM)	[Agonist] B-arrestin2 recruitment: Average EC50 (nM) [2]
Cc1cccc(F)c1[C@H]1CC[C@@H](c2cc3nccnc3n(Cc3ncccc3C(F)(F)F)c2=O)C1 [200C, 7-((1R,3S)-3-(2-Fluoro-6-methylphenyl)cyclopentyl)-5-((3-(trifluoromethyl)pyridin-2-yl)methyl)pyrido[2,3-b]pyrazin-6(5H)-one]	500 to 5000	Non-Active at 10 μM	
Cc1cccc(F)c1[C@@H]1CC[C@@H](c2cc3nccnc3n(Cc3ncccc3C(F)(F)F)c2=O)C1 [200D, 7-((1R,3R)-3-(2-Fluoro-6-methylphenyl)cyclopentyl)-5-((3-(trifluoromethyl)pyridin-2-yl)methyl)pyrido[2,3-b]pyrazin-6(5H)-one]	< 500	Non-Active at 10 μM	
Cc1ccc2cc([C@H]3C[C@H](c4c(C)cccc4F)C3)c(=O)n(Cc3ncccc3C(F)(F)F)c2n1 [243A, 3-((1r,3r)-3-(2-Fluoro-6-methylphenyl)cyclobutyl)-7-methyl-1-((3-(trifluoromethyl)pyridin-2-yl)methyl)-1,8-naphthyridin-2(1H)-one]	< 500		Non-Active
Cc1ccc2cc([C@H]3C[C@@H](c4c(C)cccc4F)C3)c(=O)n(Cc3ncccc3C(F)(F)F)c2n1 [243B, 3-((1s,3s)-3-(2-Fluoro-6-methylphenyl)cyclobutyl)-7-methyl-1-((3-(trifluoromethyl)pyridin-2-yl)methyl)-1,8-naphthyridin-2(1H)-one]	< 500		Non-Active
Cc1cccc(F)c1N1CCC(c2c(C)c3nccnc3n(Cc3ccccc3C(F)(F)F)c2=O)CC1 [compound 2, 7-(1-(2-Fluoro-6-methylphenyl)piperidin-4-yl)-8-methyl-5-(2-(trifluoromethyl)benzyl)pyrido[2,3-b]pyrazin-6(5H)-one]	500 to 5000		Non-Active
COc1nccnc1Cn1c(=O)c(C2CCN(c3c(C)cccc3F)CC2)c(C)c2nccnc21 [compound 3, 7-(1-(2-Fluoro-6-methylphenyl)piperidin-4-yl)-5-((3-methoxypyrazin-2-yl)methyl)-8-methyl pyrido[2,3-b]pyrazin-6(5H)-one]	500 to 5000		Non-Active
Cc1cccc(F)c1N1CCC(c2c(C)c3nccnc3n(Cc3nccnc3OCC(F)(F)F)c2=O)CC1 [compound 4, 7-(1-(2-Fluoro-6-methylphenyl)piperidin-4-yl)-8-methyl-5-((3-(2,2,2-trifluoroethoxy)pyrazin-2-yl)methyl)pyrido[2,3-b]pyrazin-6(5H)-one]	500 to 5000		Non-Active
COc1nccnc1Cn1c(=O)c(C2CCN(c3c(C)cccc3F)CC2)cc2nccnc21 [compound 5, 7-(1-(2-Fluoro-6-methylphenyl)piperidin-4-yl)-5-((3-methoxypyrazin-2-yl)methyl)pyrido[2,3-b]pyrazin-6(5H)-one]	500 to 5000		Non-Active
Cc1cccc(F)c1N1CCC(c2cc3nccnc3n(Cc3nccnc3OCC(F)(F)F)c2=O)CC1 [compound 6, 7-(1-(2-Fluoro-6-methylphenyl)piperidin-4-yl)-5-((3-(2,2,2-trifluoroethoxy)pyrazin-2-yl)methyl)pyrido[2,3-b]pyrazin-6(5H)-one]	< 500		Non-Active
Cc1c(C2CCN(c3ccccc3C(F)(F)F)CC2)c(=O)n(Cc2ccccc2F)c2nccnc12 [compound 7, 5-(2-Fluorobenzyl)-8-methyl-7-(1-(2-(trifluoromethyl)phenyl)piperidin-4-yl)pyrido[2,3-b]pyrazin-6(5H)-one]	< 500		Non-Active
Cc1nccnc1N1CCC(c2cc3nccnc3n(Cc3ccccc3C(F)(F)F)c2=O)CC1 [compound 8, 7-(1-(3-Methylpyrazin-2-yl)piperidin-4-yl)-5-(2-(trifluoromethyl)benzyl)pyrido[2,3-b]pyrazin-6(5H)-one]	5000 to 100000		Non-Active
COc1nccnc1N1CCC(c2cc3nccnc3n(Cc3ccccc3C(F)(F)F)c2=O)CC1 [compound 9, 7-(1-(3-Methoxypyrazin-2-yl)piperidin-4-yl)-5-(2-(trifluoromethyl)benzyl)pyrido[2,3-b]pyrazin-6(5H)-one]	5000 to 100000		Non-Active
O=c1c(C2CCN(c3ccccc3C(F)(F)F)CC2)cc2nccnc2n1Cc1ccccc1F [compound 10, 5-(2-fluorobenzyl)-7-(1-(2-(trifluoromethyl)phenyl)piperidin-4-yl)pyrido[2,3-b]pyrazin-6(5H)-one]	< 500		Non-Active
Cc1c(C2CCN(c3cccnc3C(F)(F)F)CC2)c(=O)n(Cc2ccccc2F)c2nccnc12 [compound 11, 5-(2-Fluorobenzyl)-8-methyl-7-(1-(2-(trifluoromethyl)pyridin-3-yl)piperidin-4-yl)pyrido[2,3-b]pyrazin-6(5H)-one]	> 100000		Non-Active
Cc1cccc(F)c1N1CCC(c2cc3nccnc3n(Cc3nccnc3C(F)(F)F)c2=O)CC1 [compound 12, 7-(1-(2-Fluoro-6-methylphenyl)piperidin-4-yl)-5-((3-(trifluoromethyl)pyrazin-2-yl)methyl)pyrido[2,3-b]pyrazin-6(5H)-one]	< 500		Non-Active
Cc1cccc(F)c1N1CCC(c2cc3nccnc3n(Cc3cccnc3C(F)(F)F)c2=O)CC1 [compound 13, 7-(1-(2-Fluoro-6-methylphenyl)piperidin-4-yl)-5-((2-(trifluoromethyl)pyridin-3-yl)methyl)pyrido[2,3-b]pyrazin-6(5H)-one]	< 500		Non-Active
Cc1cccc(F)c1N1CCC(c2cc3nccnc3n(Cc3ccc(C(F)(F)F)nc3)c2=O)CC1 [compound 14, 7-(1-(2-Fluoro-6-methylphenyl)piperidin-4-yl)-5-((6-(trifluoromethyl)pyridin-3-yl)methyl)pyrido[2,3-b]pyrazin-6(5H)-one]	> 100000		Non-Active
Cc1cccc(F)c1N1CCC(c2cc3nccnc3n(Cc3ccc(C(F)(F)F)cn3)c2=O)CC1 [compound 15, 7-(1-(2-Fluoro-6-methylphenyl)piperidin-4-yl)-5-((5-(trifluoromethyl)pyridin-2-yl)methyl)pyrido[2,3-b]pyrazin-6(5H)-one]	> 100000		Non-Active
Cc1cccc(F)c1N1CCC(c2cc3nccnc3n(Cc3cnccc3C(F)(F)F)c2=O)CC1 [compound 16, 7-(1-(2-Fluoro-6-methylphenyl)piperidin-4-yl)-5-((4-(trifluoromethyl)pyridin-3-yl)methyl) pyrido[2,3-b]pyrazin-6(5H)-one]	< 500		Non-Active
Cc1cccc(F)c1N1CCC(c2cc3nccnc3n(Cc3ccncc3C(F)(F)F)c2=O)CC1 [compound 17, 7-(1-(2-Fluoro-6-methylphenyl)piperidin-4-yl)-5-((3-(trifluoromethyl)pyridin-4-yl)methyl) pyrido[2,3-b]pyrazin-6(5H)-one]	500 to 5000		Non-Active
